The values that follow come from doi:10.1101/2022.02.04.479134, “A Suite of TMPRSS2 Assays for Screening Drug Repurposing Candidates as Potential Treatments of COVID-19” (bioRxiv, 2022).

For test [1], the system named is SARS-CoV-2 spike pseudotyped particles (Delta variant B.1.617.2) entry into Calu-3 cells. Briefly: microbe, parasite or virus in culture. The note with it: for inhibition of pseudotyped particle entry: variant not stated; for Emax: Severe acute respiratory syndrome coronavirus 2, Calu-3, read-out: SARS-CoV-2 PP (Delta) Max Response; for AC50: 48 h, N/D = Not Detected, read-out: SARS-CoV-2 PP (Delta) AC50; for SARS-CoV-2 PP (Delta) Max Response: PP wells 0%, bald PP −100%. The format is cell-based.

In test [2] the test system is SARS-CoV-2 spike pseudotyped particles (WA1 + D614G) entry into Calu-3 cells. It is filed as cell-based. The note with it: for AC50: read-out: SARS-CoV-2 PP (WA1 + D614G) AC50.
Where [3] appears, read: Severe acute respiratory syndrome coronavirus 2, Calu-3 cells.
[4] abbreviates: Severe acute respiratory syndrome coronavirus 2, Calu-3, variant not given, matches Delta values, read-out: IC50 blocking of entry into Calu-3 cells using pseudotyped particles with SARS-CoV-2 spike protein.
The mark [5] stands for this setting: Calu-3 cells, read-out: IC50 Delta pseudotyped particle entry.
The mark [6] stands for this setting: Severe acute respiratory syndrome coronavirus 2, Calu-3, read-out: IC50 Delta pseudotyped particle entry, Calu-3 cells.

“Also recorded” adds a separate entry of the source. Counter-ions that a name gives are not always drawn. Like-named read-outs stand apart in the source and are kept apart here. Bounds are passed on as bounds.

As to `CCOC(=O)c1ccc(OC(=O)CCCCCNC(=N)N)cc1` [Gabexate mesilate], the “inhibition of pseudotyped particle entry” value in test [1] (Calu-3 cells) was “inactive”.

`NC[C@H]1CC[C@H](C(=O)Oc2ccc(CCC(=O)O)cc2)CC1` [Cetraxate HCl]: the Emax in test [1] was determined as 30%. Further, the AC50 in test [1] (setting [3]) was 23.3 µM.

Regarding `COC(=O)N[C@H](C(=O)N1CCC[C@H]1c1nc(-c2ccc(-c3ccc(-c4c[nH]c([C@@H]5CCCN5C(=O)[C@@H](NC(=O)OC)C(C)C)n4)cc3)cc2)c[nH]1)C(C)C` [Daclatasvir dihydrochloride], in test [2], the “SARS-CoV-2 PP (WA1 + D614G) Max Response” value is listed as -100% and the AC50 was determined as 39 µM. Also, in test [1], the Emax is -100%. Also, the AC50 in test [1] (setting [3]) is 32.9 µM.

In the case of `N=C(N)c1cccc(CC(NS(=O)(=O)c2cccc(-c3ccc(Cl)cc3Cl)c2)C(=O)N2CCC(NC(=O)NC3CCCCC3)CC2)c1` (centres unmarked) [Cmpd 114 (Meyer)], in test [2], the “SARS-CoV-2 PP (WA1 + D614G) Max Response” value is -88% and the AC50 was found to be 5.35 µM. For the same compound, the Emax in test [1] worked out at 99%. The IC50 in test [1] (setting [4]) was 15000 nM. Besides, the AC50 in test [1] (setting [3]) was 15.3 µM.

As to AGN194310, in test [2], the “SARS-CoV-2 PP (WA1 + D614G) Max Response” value was -87% and the AC50 amounted to 22 µM. In addition, in test [1] (Calu-3 cells), the AC50 worked out at 38.4 µM and the “SARS-CoV-2 PP (Delta) Max Response” value is -86%.

With `N=C(N)c1ccc2nc(-c3cc(CC(=O)N[C@@H](CC(=O)O)C(=O)O)cc(-c4cc(S(N)(=O)=O)ccc4O)c3O)[nH]c2c1` [PCI-27483], in test [2], the “SARS-CoV-2 PP (WA1 + D614G) Max Response” value is reported as -66% and the AC50 is 16.5 µM. The Emax in test [1] is -66%. The AC50 in test [1] (setting [3]) stood at 15.8 µM.

Consider `N=C(N)c1cccc(CC(NS(=O)(=O)c2cccc(-c3ccc(Cl)cc3Cl)c2)C(=O)N2CCC(CCN)CC2)c1` (centres unmarked) [Cmpd 92 (Meyer)], for which the “SARS-CoV-2 PP (WA1 + D614G) Max Response” value in test [2] was -70%. The figures for the AC50 in test [2] and in test [1] (setting [3]) were 2.05 µM and 3.98 µM, respectively. The Emax in test [1] was found to be 92%. In test [1] (setting [4]), the IC50 turned out to be 4000 nM.

In the case of G-007-LK, in test [2], the “SARS-CoV-2 PP (WA1 + D614G) Max Response” value is on record as -73% and the AC50 was determined as 0.5 µM. For the same compound, in test [1] (Calu-3 cells), the AC50 amounted to 1 µM and the “SARS-CoV-2 PP (Delta) Max Response” value is reported as -67%.

Turning to `CC(C)C[C@H](NC(=O)[C@H](Cc1ccccc1)NC(=O)c1cnccn1)B(O)O` [Bortezomib], the “SARS-CoV-2 PP (WA1 + D614G) Max Response” value in test [2] was -100%. The AC50 in test [2] and in test [1] (setting [3]) was under 0.05 µM throughout. The IC50 in test [1] (Severe acute respiratory syndrome coronavirus 2, Calu-3, Calu-3 cells, apparent, due to cytotoxicity, read-out: IC50 inhibition of viral entry (variant not stated)) is under 50 nM. Also, the Emax in test [1] was -100%.

Consider Marizomib / Salinosporamide A, for which, in test [2], the “SARS-CoV-2 PP (WA1 + D614G) Max Response” value is -100% and the AC50 is under 0.05 µM. Further, in test [1] (Calu-3 cells), the AC50 was under 0.05 µM and the “SARS-CoV-2 PP (Delta) Max Response” value is recorded as -100%.

With `COC(=O)[C@H](Cc1cccc(C(=N)N)c1)[C@@H](C)NC(=O)c1ccc(-c2cc[n+]([O-])cc2)cc1` [Otamixaban], in test [2], the “SARS-CoV-2 PP (WA1 + D614G) Max Response” value is reported as -50% and the AC50 is 20 µM. Also, the Emax in test [1] is 54%. The AC50 in test [1] (setting [3]) is 18 µM.

As for `O=c1ccc2ccc(O)cc2o1` [7-Hydroxycoumarin], in test [1] (Calu-3 cells), the “inhibition of pseudotyped particle entry” value is recorded as “lack of activity; also recorded: nor any inhibition of pseudotyped particle entry”.

For the compound `N=C(N)c1ccc2cc(OC(=O)c3ccc(N=C(N)N)cc3)ccc2c1` [Nafamostat mesilate], in test [2], the “SARS-CoV-2 PP (WA1 + D614G) Max Response” value is -100%. Moreover, the IC50 in test [1] (setting [5]) is 1.4 nM; in test [1] (setting [6]), 1.42 nM. Moreover, the Emax in test [1] is -100%. Besides, in test [1] (setting [3]), the AC50 stood at 0.0014 µM.

For `CN(C)C(=O)COC(=O)Cc1ccc(OC(=O)c2ccc(NC(=N)N)cc2)cc1` [Camostat], in test [2], the “SARS-CoV-2 PP (WA1 + D614G) Max Response” value is -95%. The IC50 in test [2] (read-out: IC50 WA1 + D614G pseudotyped particle entry) was determined as 50 nM; in test [1] (setting [5]), 59 nM; in test [1] (setting [6]) it was 58.8 nM. For the same compound, the AC50 was 0.05 µM in test [2] and 0.059 µM in test [1] (setting [3]). Also, in test [1], the Emax is -92%.

Take Dibromopropamidine Dihydrochloride: in test [2], the “SARS-CoV-2 PP (WA1 + D614G) Max Response” value is -44% and the AC50 is 19.5 µM. Further, in test [1] (Calu-3 cells), the AC50 turned out to be 19.2 µM and the “SARS-CoV-2 PP (Delta) Max Response” value was -49%.
